Results published in patent US20220024906A1, “COMPOUNDS AND COMPOSITIONS FOR TREATING CONDITIONS ASSOCIATED WITH STING ACTIVITY” (IFM Due, Inc., priority 2020, published 2022).

Biological target: T1, hSTING (Homo sapiens, UniProt Q86WV6, G230A/H232R/R293Q/R71H)
T1 construct: host or cells: THP1-Dual KO-IFNAR2 cells
Experiment: STING reporter assay (luciferase) in THP1-Dual KO-IFNAR2 cells stimulated with 2′3′cGAMP
Type: cell-based
Details: 15 μM 2′3′cGAMP transfected, 24 h, luciferase reporter activity
Protocol: STING pathway activation by the compounds described herein was measured using THP1-Dual™ cells (KO-IFNAR2).
THP1-Dual™ KO-IFNAR2 Cells (obtained from invivogen) were maintained in RPMI, 10% FCS, 5 ml P/S, 2 mM L-glut, 10 mM Hepes, and 1 mM sodium pyruvate. Compounds were spotted in empty 384 well tissue culture plates (Greiner 781182) by Echo for a final concentration of 0.0017-100 μM. Cells were plated into the TC plates at 40 μL per well, 2×10E6 cells/mL. For activation with STING ligand, 2′3′cGAMP (MW 718.38, obtained from Invivogen), was prepared in Optimem media.
The following solutions were prepared for each 1×384 plate: • Solution A: 2 mL Optimem with one of the following stimuli: • 60 μL of 10 mM 2′3′cGAMP→150 μM stock • Solution B: 2 mL Optimem with 60 μL Lipofectamine 2000→Incubate 5 min at RT
2 mL of solution A and 2 ml Solution B was mixed and incubated for 20 min at room temperature (RT). 20 μL of transfection solution (A+B) was added on top of the plated cells, with a final 2′3′cGAMP concentration of 15 μM. The plates were then centrifuged immediately at 340 g for 1 minute, after which they were incubated at 37° C., 5% CO2, >98% humidity for 24 h. Luciferase reporter activity was then measured. EC50 values were calculated by using standard methods known in the art.
Luciferase reporter assay: 10 μL of supernatant from the assay was transferred to white 384-plate with flat bottom and squared wells. One pouch of QUANTI-Luc™ Plus was dissolved in 25 mL of water. 100 μL of QLC Stabilizer per 25 mL of QUANTI-Luc™ Plus solution was added. 50 μL of QUANTI-Luc™ Plus/QLC solution per well was then added. Luminescence was measured on a Platereader (e.g., Spectramax I3X (Molecular Devices GF3637001)).
Luciferase reporter activity was then measured. EC50 values were calculated by using standard methods known in the art.

T1 sequence (Q86WV6 whole entry R71H/G230A/H232R/R293Q): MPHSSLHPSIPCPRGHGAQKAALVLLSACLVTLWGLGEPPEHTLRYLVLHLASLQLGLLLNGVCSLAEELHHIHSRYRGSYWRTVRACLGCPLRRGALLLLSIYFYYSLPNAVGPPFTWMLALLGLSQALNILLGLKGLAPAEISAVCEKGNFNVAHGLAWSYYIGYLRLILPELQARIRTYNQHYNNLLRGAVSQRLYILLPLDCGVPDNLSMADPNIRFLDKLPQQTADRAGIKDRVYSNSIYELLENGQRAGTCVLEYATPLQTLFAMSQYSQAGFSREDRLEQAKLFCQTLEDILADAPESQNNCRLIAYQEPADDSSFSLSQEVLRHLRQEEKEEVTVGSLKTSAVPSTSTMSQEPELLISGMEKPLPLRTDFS

SMILES | EC50
COC1(CC(=O)Nc2c[nH]c3ccc(-c4cnn(-c5ccc(C(F)(F)F)cc5)c4)cc23)CCC1 [Compound 163, 2-(1-methoxycyclobutyl)-N-(5-(1-(4-(trifluoromethyl)phenyl)-1H-pyrazol-4-yl)-1H-indol-3-yl)acetamide] | 200 to 1000 nM
Cc1cc(CC(=O)Nc2c[nH]c3ccc(-c4cnn(-c5ccc(C(F)(F)F)cc5)c4)cc23)on1 [Compound 144, 2-(3-methylisoxazol-5-yl)-N-(5-(1-(4-(trifluoromethyl)phenyl)-1H-pyrazol-4-yl)-1H-indol-3-yl)acetamide] | 200 to 1000 nM
O=C(CN1CCCC1=O)Nc1c[nH]c2ccc(-c3cnn(-c4ccc(C(F)(F)F)cc4)c3)cc12 [Compound 166, 2-(2-oxopyrrolidin-1-yl)-N-(5-(1-(4-(trifluoromethyl)phenyl)-1H-pyrazol-4-yl)-1H-indol-3-yl)acetamide] | 1000 to 5000 nM
Cc1ccc(OC(C)(C)C(=O)Nc2c[nH]c3cc(F)c(F)cc23)nc1 [Compound 105, N-(5,6-difluoro-1H-indol-3-yl)-2-methyl-2-((5-methylpyridin-2-yl)oxy)propanamide] | 5000 to 100000 nM
O=C(Nc1c[nH]c2cc(F)c(F)cc12)C1CC(Oc2ccccc2)C1 (stereo not drawn) [Compound 114, N-(5,6-difluoro-1H-indol-3-yl)-3-phenoxycyclobutane-1-carboxamide] | 1000 to 5000 nM
O=C(CCn1cccn1)Nc1c[nH]c2ccc(-c3cnn(-c4ccc(C(F)(F)F)cc4)c3)cc12 [Compound 143, 3-(1H-pyrazol-1-yl)-N-(5-(1-(4-(trifluoromethyl)phenyl)-1H-pyrazol-4-yl)-1H-indol-3-yl)propanamide] | 200 to 1000 nM
O=C(Cc1ncc[nH]1)Nc1c[nH]c2ccc(-c3cnn(-c4ccc(C(F)(F)F)cc4)c3)cc12 [Compound 149, 2-(1H-imidazol-2-yl)-N-(5(1-(4-(trifluoromethyl)phenyl)-1H-pyrazol-4-yl)-1H-indol-3-yl)acetamide] | 5000 to 100000 nM
O=C(Cc1cccc(OC(F)F)c1)Nc1c[nH]c2cc(F)c(F)cc12 [Compound 127, N-(5,6-difluoro-1H-indol-3-yl)-2-(3-(difluoromethoxy)phenyl)acetamide] | 5000 to 100000 nM
NC1(CC(=O)Nc2c[nH]c3ccc(-c4cnn(-c5ccc(C(F)(F)F)cc5)c4)cc23)CCCCC1 [Compound 151, 2-(1-aminocyclohexyl)-N-(5-(1-(4-(trifluoromethyl)phenyl)-1H-pyrazol-4-yl)-1H-indol-3-yl)acetamide] | 1000 to 5000 nM
O=C(Cc1ccc(OC(F)(F)F)cc1)Nc1c[nH]c2cc(F)c(F)cc12 [Compound 129, N-(5,6-difluoro-1H-indol-3-yl)-2-(4-(trifluoromethoxy)phenyl)acetamide] | 1000 to 5000 nM
O=C(Nc1c[nH]c2cc(F)c(F)cc12)C1CCN(S(=O)(=O)c2ccc(F)cc2)C1 (stereo not drawn) [Compound 111, N-(5,6-difluoro-1H-indol-3-yl)-1-((4-fluorophenyl)sulfonyl)pyrrolidine-3-carboxamide] | 1000 to 5000 nM
O=C(CS(=O)(=O)C1CC1)Nc1c[nH]c2ccc(-c3cnn(-c4ccc(C(F)(F)F)cc4)c3)cc12 [Compound 158, 2-(cyclopropylsulfonyl)-N-(5-(1-(4-(trifluoromethyl)phenyl)-1H-pyrazol-4-yl)-1H-indol-3-yl)acetamide] | 200 to 1000 nM
C/C(=C\c1ccccn1)C(=O)Nc1c[nH]c2cc(F)c(F)cc12 [Compound 109, (E)-N-(5,6-difluoro-1H-indol-3-yl)-2-methyl-3-(pyridin-2-yl)acrylamide] | 1000 to 5000 nM
CC(Oc1ccc(OC(F)(F)F)cc1)C(=O)Nc1c[nH]c2cc(F)c(F)cc12 (stereo not drawn) [Compound 130, N-(5,6-difluoro-1H-indol-3-yl)-2-(4-(trifluoromethoxy)phenoxy)propanamide] | 1000 to 5000 nM
Cc1cc(CC(=O)Nc2c[nH]c3cc(F)c(F)cc23)cnc1N1CCC(F)(F)CC1 [Compound 126, N-(5,6-difluoro-1H-indol-3-yl)-2-(6-(4,4-difluoropiperidin-1-yl)-5-methylpyridin-3-yl)acetamide] | 1000 to 5000 nM
COc1ccc(CCC(=O)Nc2c[nH]c3cc(F)c(F)cc23)cn1 [Compound 116, N-(5,6-difluoro-1H-indol-3-yl)-3-(6-methoxypyridin-3-yl)propanamide] | 5000 to 100000 nM
O=C(/C=C/c1ccc(OC(F)(F)F)cc1)Nc1c[nH]c2cc(F)c(F)cc12 [Compound 136, (E)-N-(5,6-difluoro-1H-indol-3-yl)-3-(4-(trifluoromethoxy)phenyl)acrylamide] | 200 to 1000 nM
CCOc1ccc(CC(=O)Nc2c[nH]c3cc(F)c(F)cc23)cc1C(F)(F)F [Compound 103, N-(5,6-difluoro-1H-indol-3-yl)-2-(4-ethoxy-3-(trifluoromethyl)phenyl)acetamide] | 1000 to 5000 nM
O=C(CCc1ncccn1)Nc1c[nH]c2ccc(-c3cnn(-c4ccc(C(F)(F)F)cc4)c3)cc12 [Compound 147, 3-(pyrimidin-2-yl)-N-(5-(1-(4-(trifluoromethyl)phenyl)-1H-pyrazol-4-yl)-1H-indol-3-yl)propanamide] | 200 to 1000 nM
N#Cc1cccc(/C=C/C(=O)Nc2c[nH]c3cc(F)c(F)cc23)c1 [Compound 135, (E)-3-(3-cyanophenyl)-N-(5,6-difluoro-1H-indol-3-yl)acrylamide] | 200 to 1000 nM
O=C(CCn1ccnc1)Nc1c[nH]c2ccc(-c3cnn(-c4ccc(C(F)(F)F)cc4)c3)cc12 [Compound 142, 3-(1H-imidazol-1-yl)-N-(5-(1-(4-(trifluoromethyl)phenyl)-1H-pyrazol-4-yl)-1H-indol-3-yl)propanamide] | 200 to 1000 nM
O=C(CC1(O)CCC1)Nc1c[nH]c2ccc(-c3cnn(-c4ccc(C(F)(F)F)cc4)c3)cc12 [Compound 162, 2-(1-hydroxycyclobutyl)-N-(5-(1-(4-(trifluoromethyl)phenyl)-1H-pyrazol-4-yl)-1H-indol-3yl)acetamide] | 200 to 1000 nM
O=C(Cn1cncn1)Nc1c[nH]c2ccc(-c3cnn(-c4ccc(C(F)(F)F)cc4)c3)cc12 [Compound 164, 2-(1H-1,2,4-triazol-1-yl)-N-(5-(1-(4-(trifluoromethyl)phenyl)-1H-pyrazol-4-yl)-1H-indol-3yl)acetamide] | 1000 to 5000 nM
COc1cccc(N2CC(C(=O)Nc3c[nH]c4cc(F)c(F)cc34)CC2=O)c1 (stereo not drawn) [Compound 112, N-(5,6-difluoro-1H-indol-3-yl)-1-(3-methoxyphenyl)-5-oxopyrrolidine-3-carboxamide] | 5000 to 100000 nM
O=C(CCn1cncn1)Nc1c[nH]c2ccc(-c3cnn(-c4ccc(C(F)(F)F)cc4)c3)cc12 [Compound 159, 3-(1H-1,2,4-triazol-1-yl)-N-(5-(1-(4-(trifluoromethyl)phenyl)-1H-pyrazol-4-yl)-1H-indol-3-yl)propanamide] | 200 to 1000 nM
O=C(Nc1c[nH]c2ccc(-c3cnn(-c4ccc(C(F)(F)F)cc4)c3)cc12)C(O)c1ccccc1 (stereo not drawn) [Compound 154, 2-hydroxy-2-phenyl-N-(5-(1-(4-(trifluoromethyl)phenyl)-1H-pyrazol-4-yl)-1H-indol-3-yl)acetamide] | 1000 to 5000 nM
C[C@H](NC1CCCCC1)C(=O)Nc1c[nH]c2cc(F)c(F)cc12 [Compound 113, (S)-2-(cyclohexylamino)-N-(5,6-difluoro-1H-indol-3-yl)propanamide] | 5000 to 100000 nM
COc1ccc(CC(C)(C)C(=O)Nc2c[nH]c3cc(F)c(F)cc23)cc1 [Compound 133, N-(5,6-difluoro-1H-indol-3-yl)-3-(4-methoxyphenyl)-2,2-dimethylpropanamide] | 5000 to 100000 nM
O=C(Nc1c[nH]c2cc(F)c(F)cc12)[C@H]1CCN(C(=O)OCc2ccccc2)C1 [Compound 115, benzyl (S)-3-((5,6-difluoro-1H-indol-3-yl)carbamoyl)pyrrolidine-1-carboxylate] | 5000 to 100000 nM
Cc1nc(CC(=O)Nc2c[nH]c3ccc(-c4cnn(-c5ccc(C(F)(F)F)cc5)c4)cc23)cs1 [Compound 165, 2-(2-methylthiazol-4-yl)-N-(5-(1-(4-(trifluoromethyl)phenyl)-1H-pyrazol-4-yl)-1H-indol-3-yl)acetamide] | 200 to 1000 nM
